In patent publication US12692241B2, “Substituted triazine compound” (Nico Therapeutics, Inc., priority 2021, dated 2026):
Where a name gives a salt, the structure may show the parent alone.

The compounds below were run on IL-1β production in THP-1 cells (LPS and ATP; NLRP3 inflammasome activation) (assay: THP-1 IL-1β production inhibitory test). Conditions: Homo sapiens, THP-1, 2 h, PMA-differentiated THP-1 cells, LPS 50 ng/mL and ATP 5 mM, 2 hours, ELISA; read-out: IC50 (nM), IL-1β production.
Format: cell-based, human
Experimental: THP-1 IL-1β Production Inhibitory Test
To THP-1 cells, 50 ng/mL PMA (phorbol myristate acetate, SIGMA, P1585) was added at 37° C. and then the cells were cultured for 2 days. […] The cells were cultured at 37° C. for 15 minutes. LPS (lipopolysaccharide, SIMGA, L2880) and ATP (adenosine triphosphate, SIGMA, A2383) were added such that the final concentrations of them became 50 ng/mL and 5 mM, respectively. The cells were cultured at 37° C. for 2 hours. The supernatant was collected and the concentration of IL-1β was measured by ELISA (DuoSet ELISA human IL-1β, R&D Systems, DY201). The concentration of IL-1β was plotted against the logarithm of the concentration of the test compound, and the IC50 value was calculated by sigmoidal Emax model nonlinear regression analysis.

Compound | IC50
Oc1cc(C(F)(F)F)ccc1-c1nnc(N[C@@H]2CCC[C@H]2O)nc1C1CC1 [Example 110] | 15 nM
CC(=O)NC[C@H]1C[C@H](Nc2nnc(-c3ccc(C(F)(F)F)cc3O)c(C)n2)C1 [Example 106] | 26 nM
Cc1nc(N[C@@H]2CCCC[C@H]2N)nnc1-c1ccc(Cl)cc1O [Example 146] | 12 nM
Cc1nc(N[C@@H]2CCCC[C@H]2N(C)C)nnc1-c1ccc(C(F)(F)F)cc1O [Example 177] | 48 nM
Cc1nc(N[C@@H]2CCCN(CC(=O)O)C2)nnc1-c1ccc(C(F)(F)F)cc1O [Example 183] | 150 nM
Cc1nc(N[C@H]2CCCC[C@H]2O)nnc1-c1ccc(C(F)(F)F)cc1O [Example 20] | 34 nM
Cc1nc(N[C@@H]2CCCC[C@H]2O)nnc1-c1ccc(C2CC2)cc1O [Example 67] | 9.6 nM
Cc1nc(N[C@@H]2CNC(=O)C2)nnc1-c1ccc(C(F)(F)F)cc1O [Example 63] | 200 nM
Cc1nc(NC[C@H]2C[C@H](N)C2)nnc1-c1ccc(C(F)(F)F)cc1O [Example 143] | 220 nM
Cc1nc(N[C@@H]2C[C@H]3C[C@@H]2[C@@H](O)C3)nnc1-c1ccc(C(F)(F)F)cc1O [Example 39] | 19 nM
C[C@]1(O)C[C@@H](Nc2nnc(-c3ccc(Cl)cc3O)c(C3CC3)n2)C1 [Example 121] | 43 nM
Cc1nc(NCC2(CO)CCC2)nnc1-c1ccc(C(F)(F)F)cc1O [Example 15] | 100 nM
Cc1nc(NC[C@@H]2CCCO2)nnc1-c1ccc(C(F)(F)F)cc1O [Example 18] | 88 nM
Cc1ccc(-c2nnc(N[C@@H]3CCC[C@H](O)C3)nc2C)c(O)c1 [Example 81] | 42 nM
CC(C)c1nc(NC[C@@H](C)O)nnc1-c1ccc(C(F)(F)F)cc1O [Example 129] | 55 nM
CC(C)c1nc(N[C@@H]2CCCC[C@H]2O)nnc1-c1ccc(C(F)(F)F)cc1O [Example 128] | 7.9 nM
Cc1nc(N[C@@H]2CCCC[C@H]2O)nnc1-c1ccc(C(C)C)cc1O [Example 36] | 17 nM
CC(=O)N1CCC[C@H]1CNc1nnc(-c2ccc(C(F)(F)F)cc2O)c(C)n1 [Example 151, 1-((2S)-2-[({6-[2-hydroxy-4-(trifluoromethyl)phenyl]-5-methyl-1,2,4-triazin-3-yl}amino)methyl]pyrrolidin-1-yl)ethan-1-one] | 35 nM
Cc1nc(N[C@@H]2CCC[C@H]2O)nnc1-c1ccc(C(F)(F)F)cc1O [Example 5] | 21 nM
Cc1nc(NC[C@@H](C)O)nnc1-c1ccc(C2CC2)cc1O [Example 56] | 12 nM
Cc1ccc(-c2nnc(N[C@H]3C[C@@](C)(O)C3)nc2C)c(O)c1 [Example 51] | 33 nM
Cc1nc(N[C@@H]2CCCC[C@@]2(C)O)nnc1-c1ccc(OC(F)(F)F)cc1O [Example 58] | 9.3 nM
CC(=O)N[C@H]1C[C@H](CNc2nnc(-c3ccc(C(F)(F)F)cc3O)c(C)n2)C1 [Example 156] | 23 nM
Cc1nc(NCC(F)F)nnc1-c1ccc(C(F)(F)F)cc1O [Example 87] | 130 nM
Cc1cc(C(F)(F)F)cc(O)c1-c1nnc(N[C@@H]2CCCC[C@H]2O)nc1C [Example 165] | 6.7 nM
Cc1nc(N[C@@H]2CCCC[C@@H](O)C2)nnc1-c1ccc(C(F)(F)F)cc1O [Example 79] | 14 nM
Cc1nc(N[C@@H]2CC[C@H](C(=O)O)C2)nnc1-c1ccc(C(F)(F)F)cc1O [Example 182, (1S,3R)-3-({6-[2-hydroxy-4-(trifluoromethyl)phenyl]-5-methyl-1,2,4-triazin-3-yl}amino)cyclopentane-1-carboxylic acid] | 67 nM
Cc1nc(N[C@@H]2CCCC[C@H]2O)nnc1-c1ccc(F)cc1O [Example 53] | 63 nM
Cc1nc(NC[C@H]2COCCN2)nnc1-c1ccc(C(F)(F)F)cc1O [Example 142] | 340 nM

Same assay, conditions: Homo sapiens, THP-1, 2 h, read-out: IC50 (nM), IL-1β production

Compound | IC50
Cc1nc(NC[C@@H](C)N)nnc1-c1ccc(C(F)(F)F)cc1O [Example 148, 2-(3-{[(2R)-2-aminopropyl]amino}-5-methyl-1,2,4-triazin-6-yl)-5-(trifluoromethyl)phenol monohydrochloride] | 150 nM
